Reference: publication PMC7881240, “Calmodulin regulates the olfactory performance in Drosophila melanogaster” (Scientific Reports, 2021)

Key:
[1] = target: T1, Orco (Drosophila melanogaster, UniProt Q9VNB5, K339N); assay: GCaMP6f Ca2+ imaging of OSNs, concentration-response
T1 construct: OrX/OrcoK339N in olfactory sensory neurons (Orco1 null background), ex vivo antenna; with OrX

[2] = target: T2, Orco (Drosophila melanogaster, UniProt Q9VNB5); assay: as above
T2 construct: native OrX/OrcoWT in olfactory sensory neurons, ex vivo antenna; with OrX
T2 sequence (Q9VNB5 1-486): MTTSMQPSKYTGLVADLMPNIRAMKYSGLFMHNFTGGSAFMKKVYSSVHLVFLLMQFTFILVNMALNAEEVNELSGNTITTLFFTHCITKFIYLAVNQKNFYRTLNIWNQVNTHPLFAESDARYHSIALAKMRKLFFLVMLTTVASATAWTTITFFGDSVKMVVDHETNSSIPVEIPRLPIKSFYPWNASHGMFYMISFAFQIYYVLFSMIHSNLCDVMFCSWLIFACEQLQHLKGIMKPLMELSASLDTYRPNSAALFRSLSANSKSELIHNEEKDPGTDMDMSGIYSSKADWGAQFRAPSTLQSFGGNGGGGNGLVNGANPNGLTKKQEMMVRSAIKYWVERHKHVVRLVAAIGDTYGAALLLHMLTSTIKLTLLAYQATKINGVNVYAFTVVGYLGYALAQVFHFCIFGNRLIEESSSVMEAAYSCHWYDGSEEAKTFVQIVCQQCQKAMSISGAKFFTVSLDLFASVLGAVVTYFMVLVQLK

[3] = target: T3, Or22a (Drosophila melanogaster, UniProt P81909); assay: GCaMP6f Ca2+ imaging of Or22a OSNs, concentration-response
T3 construct: Or22a/OrcoWT in Or22a-expressing olfactory sensory neurons, ex vivo antenna; with Orco
T3 sequence (P81909 1-397): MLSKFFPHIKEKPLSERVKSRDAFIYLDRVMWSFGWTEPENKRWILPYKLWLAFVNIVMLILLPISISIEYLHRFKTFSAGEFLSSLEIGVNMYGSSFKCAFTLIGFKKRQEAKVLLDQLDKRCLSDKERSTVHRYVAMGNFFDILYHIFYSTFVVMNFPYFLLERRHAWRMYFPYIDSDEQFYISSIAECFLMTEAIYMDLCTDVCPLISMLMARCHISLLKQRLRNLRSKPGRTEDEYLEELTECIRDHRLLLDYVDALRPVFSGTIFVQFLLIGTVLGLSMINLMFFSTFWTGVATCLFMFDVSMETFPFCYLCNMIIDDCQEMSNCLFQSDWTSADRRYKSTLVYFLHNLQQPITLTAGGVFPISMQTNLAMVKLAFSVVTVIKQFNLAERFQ
T3 sequence (Q9VNB5 1-486 partner): T2 sequence (Q9VNB5 1-486)

T1 sequence (Q9VNB5 whole entry K339N): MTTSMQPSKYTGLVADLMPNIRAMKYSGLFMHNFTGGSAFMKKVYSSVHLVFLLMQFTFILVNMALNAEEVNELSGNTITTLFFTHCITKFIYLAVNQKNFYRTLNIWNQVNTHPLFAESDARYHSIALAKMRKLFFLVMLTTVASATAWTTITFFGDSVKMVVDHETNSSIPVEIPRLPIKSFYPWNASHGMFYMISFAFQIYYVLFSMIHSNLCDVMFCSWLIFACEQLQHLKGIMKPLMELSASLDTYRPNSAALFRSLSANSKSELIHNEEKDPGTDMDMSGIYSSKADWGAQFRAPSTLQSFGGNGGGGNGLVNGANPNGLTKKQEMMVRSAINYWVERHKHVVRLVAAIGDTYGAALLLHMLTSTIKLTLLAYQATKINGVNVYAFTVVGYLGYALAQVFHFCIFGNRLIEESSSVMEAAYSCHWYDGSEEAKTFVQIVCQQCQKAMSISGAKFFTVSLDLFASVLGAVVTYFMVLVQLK

EC50 [3] | Compound | EC50 [1] | EC50 [2]
 | CCc1ccc(NC(=O)CSc2nnc(-c3cccnc3)n2CC)cc1 [VUAA1, 2-(4-Ethyl-5-(pyridin-3-yl)-4H-1,2,4-triazol-3-ylthio)-N-(4-ethylphenyl) acetamide] | 85 µM | 88 µM
13 µM | CCCCCC(=O)OCC [ethyl hexanoate] |  | 
